Data as given in PubChem BioAssay (NCI).
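48-hour exposure; five concentrations; linearly interpolated endpoints. At the GI50, growth is halved. TGI: total growth inhibition.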

Assays:
Test in all cases: NCI-60 cell line screen, 48 h
SK-MEL-5 melanoma = tested on: SK-MEL-5 melanoma
SN12C renal = tested on: SN12C renal
HT29 colon = tested on: HT29 colon
LOX IMVI melanoma = tested on: LOX IMVI melanoma
NCI-H226 lung = tested on: NCI-H226 lung
SW-620 colon = tested on: SW-620 colon
SF-295 CNS = tested on: SF-295 CNS
M14 melanoma = tested on: M14 melanoma
K-562 leukemia = tested on: K-562 leukemia
SNB-19 CNS = tested on: SNB-19 CNS

| SMILES | GI50 (SK-MEL-5 melanoma) [µM] | TGI (SK-MEL-5 melanoma) [µM] | GI50 (SN12C renal) [µM] | TGI (SN12C renal) [µM] | GI50 (HT29 colon) [µM] | TGI (HT29 colon) [µM] | GI50 (LOX IMVI melanoma) [µM] | TGI (LOX IMVI melanoma) [µM] | GI50 (NCI-H226 lung) [µM] | TGI (NCI-H226 lung) [µM] | GI50 (SW-620 colon) [µM] | TGI (SW-620 colon) [µM] | GI50 (SF-295 CNS) [µM] | TGI (SF-295 CNS) [µM] | GI50 (M14 melanoma) [µM] | TGI (M14 melanoma) [µM] | GI50 (K-562 leukemia) [µM] | TGI (K-562 leukemia) [µM] | GI50 (SNB-19 CNS) [µM] | TGI (SNB-19 CNS) [µM] |
| --- | --- | --- | --- | --- | --- | --- | --- | --- | --- | --- | --- | --- | --- | --- | --- | --- | --- | --- | --- | --- |
| Oc1c(O)c(Cl)c(Cl)c(Cl)c1Cl | 3.37 | 13.4 | 3.79 | 50 | 4.89 | 22.4 | 3.65 | 20.3 | 4.62 | 24.3 | 3.17 | 30.3 | 3.23 | 12.7 | 3.51 | 15.4 | 3.49 | > 100 |  |  |
| O=C(Oc1ccccc1)C(Br)C(Br)c1ccccc1 (stereo not given) | 13.1 | 25.8 | 1.88 | 4.5 |  |  | 1.9 | 4 | 5 | 18.7 | 1.74 | 3.29 | 4.88 | 18.3 | 2.68 | 7.51 | 1.95 | 9 | 11.9 | 24.6 |
| C=C1C(=O)O[C@H]2[C@H]1CC/C(COC(=O)NCCc1cccc(OC)c1)=C\CC[C@@]1(C)O[C@@H]21 | 1.84 | 3.57 |  |  | 1.14 | 2.88 | 1.34 | 2.81 | 1.57 | 3.6 | 0.502 | 2.01 | 7.26 | 20.4 | 1.29 | 2.92 | 0.613 | 6.25 | 1.43 | 3.13 |
| COc1cc2c(c(OC)c1OC)-c1ccc(SC)c(=O)cc1C(CC(=O)Oc1cccc(F)c1)C2 (stereo not given) |  | > 55.8 |  | 16.6 |  | 0.557 |  | 10.8 |  | 0.794 |  | > 100 |  | > 100 |  |  |  | > 52.4 |  | > 100 |
| C/C(O)=C(\N=O)C(=O)NCc1ccccc1 |  | > 100 |  | > 100 |  | > 100 |  | 36.6 |  | > 100 |  | 31.4 |  | > 100 |  |  |  | > 100 |  | > 100 |
| CCOC(=O)C1=C(C(=O)OCC)C2(c3ccccc3)N(O1)c1ccccc1C2(C)C (stereo not given) |  | > 100 |  |  |  | > 100 |  |  |  | > 100 |  | > 100 |  | > 100 |  | > 100 |  | > 100 |  | > 100 |
| COc1ccc(-c2nc(N)c(C#N)c3c2CCOc2c-3ccc3ccccc23)cc1 |  |  | 21 | 76.5 | 52.7 | > 100 |  |  | 18 | 58.2 |  |  |  |  | 66.6 | > 100 | > 100 | > 100 | 24.2 | 91 |
| COc1cc(NC(C)CCCNC(C)C)c2ncccc2c1OC (stereo not given) | > 100 | > 100 | > 100 | > 100 |  |  | > 100 | > 100 | > 100 | > 100 | 97.1 | > 100 | > 100 | > 100 | > 100 | > 100 | 32.8 | > 100 | > 100 | > 100 |
